Reference: ChEMBL document CHEMBL1155476, “A vHTS approach for the identification of beta-adrenoceptor ligands” (Bioorg Med Chem Lett, 2010)
In brackets after ≈: the same amount, converted by molar mass.

Key:
[1] = target: T1, Beta-1 adrenergic receptor (Homo sapiens, UniProt P08588); assay: Displacement of [125I]cyanopindolol from human adrenergic beta-1 receptor expressed in CHOK1 cells; assay type: cell-based, CHO-K1
Target sequence in this assay (P08588 whole entry): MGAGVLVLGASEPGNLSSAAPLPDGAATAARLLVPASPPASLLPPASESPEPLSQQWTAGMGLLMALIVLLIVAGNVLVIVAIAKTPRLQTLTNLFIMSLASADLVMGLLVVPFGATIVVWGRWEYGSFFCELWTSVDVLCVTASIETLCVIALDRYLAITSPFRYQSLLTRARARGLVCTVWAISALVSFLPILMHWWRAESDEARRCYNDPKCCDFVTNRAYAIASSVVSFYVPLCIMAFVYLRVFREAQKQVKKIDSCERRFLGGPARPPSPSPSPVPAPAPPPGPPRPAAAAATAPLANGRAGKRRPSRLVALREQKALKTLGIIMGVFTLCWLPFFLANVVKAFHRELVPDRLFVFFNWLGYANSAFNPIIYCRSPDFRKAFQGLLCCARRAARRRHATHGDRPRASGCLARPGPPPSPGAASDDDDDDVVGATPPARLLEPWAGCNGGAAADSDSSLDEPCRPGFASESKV

[2] = target: T2, Beta-3 adrenergic receptor (Homo sapiens, UniProt P13945); assay: biochemical
Description: Displacement of [125I]cyanopindolol from human adrenergic beta3 receptor expressed in CHOK1 cells

[3] = target: T3, Beta-2 adrenergic receptor (Homo sapiens, UniProt P07550); assay: biochemical
Description: Displacement of [125I]cyanopindolol from human adrenergic beta2 receptor expressed in CHOK1 cells

[4] = target: T1, Beta-1 adrenergic receptor; assay: Intrinsic activity at human adrenergic beta-1 receptor expressed in CHOK1 cells assessed as cAMP accumulation by HTRF assay relative to isoproterenol; assay type: functional, cell-based; conditions: CHO-K1
Target sequence in this assay (P08588 whole entry, looked up): as the sequence (P08588 whole entry) above

[5] = Half life in Wistar rat at 10 mg/kg, po; assay type: ADME, organism-based; set-up: dose 10 mg/kg, route oral; conditions: in vivo
[6] = target: T2, Beta-3 adrenergic receptor
Description: Agonist activity at human adrenergic beta3 receptor expressed in CHOK1 cells assessed as cAMP accumulation by HTRF assay

[7] = Cmax in Wistar rat at 10 mg/kg, po; assay type: ADME, organism-based; set-up: dose 10 mg/kg, route oral; conditions: in vivo
[8] = target: T1, Beta-1 adrenergic receptor; assay: Agonist activity at human adrenergic beta-1 receptor expressed in CHOK1 cells assessed as cAMP accumulation by HTRF assay; assay type: functional, cell-based, CHO-K1
Target sequence in this assay (P08588 whole entry): as above

[9] = target: T3, Beta-2 adrenergic receptor; assay: Antagonist activity at human adrenergic beta2 receptor expressed in CHOK1 cells assessed as inhibition of cAMP accumulation by HTRF assay; assay type: functional, cell-based, CHO-K1
[10] = Solubility at pH 6; assay type: physicochemical; conditions: buffer
[11] = Cytotoxicity against human HepG2 cells; assay type: cell-based; conditions: read-out: ED50 (the source's name)
[12] = Solubility at pH 4; assay type: physicochemical; conditions: buffer
[13] = Cytotoxicity against human PBMC cells; assay type: cell-based; conditions: read-out: ED50 (the source's name)
[14] = Permeability by PAMPA method; assay type: ADME
[15] = target: T1, Beta-1 adrenergic receptor; assay: Antagonist activity at human adrenergic beta-1 receptor expressed in CHOK1 cells assessed as inhibition of cAMP accumulation by HTRF assay; assay type: functional, cell-based, CHO-K1
Target sequence in this assay (P08588 whole entry): as above

[16] = target: T2, Beta-3 adrenergic receptor; assay: Antagonist activity at human adrenergic beta3 receptor expressed in CHOK1 cells assessed as inhibition of cAMP accumulation by HTRF assay; assay type: functional, cell-based, CHO-K1

T3 sequence (P07550 whole entry): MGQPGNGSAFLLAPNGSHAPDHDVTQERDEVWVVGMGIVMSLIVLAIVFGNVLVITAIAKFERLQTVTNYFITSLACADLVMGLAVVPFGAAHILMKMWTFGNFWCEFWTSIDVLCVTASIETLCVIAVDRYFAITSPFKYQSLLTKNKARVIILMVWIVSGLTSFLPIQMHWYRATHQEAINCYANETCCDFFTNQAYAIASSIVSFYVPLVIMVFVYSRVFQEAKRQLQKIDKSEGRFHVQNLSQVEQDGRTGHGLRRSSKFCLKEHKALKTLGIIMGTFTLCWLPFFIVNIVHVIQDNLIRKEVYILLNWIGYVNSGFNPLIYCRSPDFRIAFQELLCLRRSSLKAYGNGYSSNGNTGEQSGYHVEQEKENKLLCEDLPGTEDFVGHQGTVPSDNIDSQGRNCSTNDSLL
T2 sequence (P13945 whole entry): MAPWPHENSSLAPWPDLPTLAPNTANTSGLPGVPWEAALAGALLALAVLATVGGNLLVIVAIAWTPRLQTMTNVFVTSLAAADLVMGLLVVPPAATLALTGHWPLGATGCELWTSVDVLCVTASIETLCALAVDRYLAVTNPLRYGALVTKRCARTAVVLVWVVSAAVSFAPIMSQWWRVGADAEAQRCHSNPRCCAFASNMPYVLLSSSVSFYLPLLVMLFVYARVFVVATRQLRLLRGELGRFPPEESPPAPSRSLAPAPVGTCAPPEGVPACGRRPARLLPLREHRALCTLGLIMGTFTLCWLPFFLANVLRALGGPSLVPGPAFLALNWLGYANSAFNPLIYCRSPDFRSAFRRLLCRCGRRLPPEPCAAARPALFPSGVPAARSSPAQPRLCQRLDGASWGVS

| Structure (SMILES) | Ki ([1]; read-out: Ki) | Ki [2] | Ki [3] | also measured |
| --- | --- | --- | --- | --- |
| CC(C)c1ccccc1OCC(O)CN1CCC(N2C(=O)c3cccc4cccc(c34)C2=O)CC1 (configuration not stated) | 240 nM | 3820 nM | 13 nM | – |
| C=CCc1ccccc1OCC(O)CN1CCC(N2C(=O)c3cccc4cccc(c34)C2=O)CC1 (configuration not stated) | 1050 nM | 2340 nM | 40 nM | – |
| CC(C)c1ccccc1OCC(O)CN1CCN(CCN2C(=O)c3cccc4cccc(c34)C2=O)CC1 (configuration not stated) | 740 nM | 1480 nM | 70 nM | – |
| Cc1ccc(C(C)C)c(OCC(O)CN2CCN(CCN3C(=O)c4cccc5cccc(c45)C3=O)CC2)c1 (configuration not stated) | – | > 10000 nM | 110 nM | Ki ([1]; cho-k1): Not Active |
| COc1ccc(C(=O)C2CCN(CC(O)COc3cccc4[nH]c5ccccc5c34)CC2)cc1 (configuration not stated) | 13 nM | 9180 nM | 0.2 nM | – |
| COc1ccc(CC2CCN(CC(O)COc3cccc4[nH]c5ccccc5c34)CC2)cc1 (configuration not stated) | 3.4 nM | 455 nM | 0.2 nM | – |
| CC(C)c1ccccc1OCC(O)CN1CCC(CN2C(=O)c3ccccc3C2=O)CC1 (configuration not stated) | 720 nM | 1480 nM | 17 nM | – |
| COc1ccc(OCC(O)CNC2CCN(c3ncnc4scc(-c5ccccc5)c34)CC2)cc1 (configuration not stated) | > 10000 nM | – | – | – |
| O=C(c1ccc(F)cc1)C1CCN(CC(O)COc2cccc3[nH]c4ccccc4c23)CC1 (configuration not stated) | 32 nM | 250 nM | 0.3 nM | Intrinsic activity [4]: 20%; half-life [5]: 7.5 h; EC50 [6]: 385 nM; Cmax [7]: 290 nM; EC50 [8]: 310 nM; IC50 [9]: 32 nM; solubility [10]: 10 µM (≈ 4.47 µg/mL); CC50 [11]: 19000 nM; solubility [12]: 180 µM (≈ 80.4 µg/mL); CC50 [13]: 9000 nM; Activity [14]: Active |
| COc1cc2c3c(cccc3c1)C(=O)N(CC1CCN(CC(O)COc3cccc4[nH]c5ccccc5c34)CC1)C2=O (configuration not stated) | 0.1 nM | 410 nM | 8 nM | – |
| C=CCc1ccccc1OCC(O)CN1CCC(CN2C(=O)c3ccccc3C2=O)CC1 (configuration not stated) | 190 nM | 3400 nM | 50 nM | – |
| O=C1c2cccc3cccc(c23)C(=O)N1CC1CCN(CC(O)COc2ccc3[nH]ccc3c2)CC1 (configuration not stated) | 4530 nM | 8500 nM | 1260 nM | – |
| CC(C)c1ccccc1OCC(O)CN1CCC(CN2C(=O)CCCC2=O)CC1 (configuration not stated) | 245 nM | 2900 nM | 9 nM | – |
| OC(COc1cccc2[nH]c3ccccc3c12)CN1CCC(Cc2cccnc2)CC1 (configuration not stated) | 1 nM | 72 nM | 0.1 nM | – |
| C=CCc1ccccc1OCC(O)CNC1CCN(C)CC1 (configuration not stated) | 260 nM | 6220 nM | 2.4 nM | – |
| Cc1ccc(C(C)C)c(OCC(O)CN2CCC(CN3C(=O)c4cccc5cccc(c45)C3=O)CC2)c1 (configuration not stated) | 1000 nM | 411 nM | 80 nM | IC50 [15]: 1380 nM; IC50 [16]: 1470 nM |
| O=C(c1ccccc1)C1CCN(CC(O)COc2cccc3[nH]c4ccccc4c23)CC1 (configuration not stated) | 16 nM | 230 nM | 0.2 nM | – |

| Structure (SMILES) | Ki ([1]; read-out: Ki) | Ki [2] | Ki [3] | also measured |
| --- | --- | --- | --- | --- |
| CC(C)c1ccccc1OCC(O)CNC1CCN(C)CC1 (configuration not stated) | 89 nM | 1060 nM | 17 nM | – |
| O=C1c2cccc3cccc(c23)C(=O)N1CC1CCN(CC(O)COc2cccc3[nH]ccc23)CC1 (configuration not stated) | 27 nM | 1000 nM | 120 nM | – |
| COc1ccc(OCC(O)CN2CCC(CN3C(=O)c4cccc5cccc(c45)C3=O)CC2)c(C(C)(C)C)c1 (configuration not stated) | 530 nM | 3380 nM | 300 nM | – |
| C=CCc1ccccc1OCC(O)CN1CCC(CN2C(=O)c3cccc4cc(OC)cc(c34)C2=O)CC1 (configuration not stated) | 300 nM | 1510 nM | 78 nM | – |
| C=CCc1ccccc1OCC(O)CN1CCC(CN2C(=O)CCCC2=O)CC1 (configuration not stated) | 440 nM | 11000 nM | 80 nM | – |
| C=CCc1ccc(OCC(O)CN2CCC(CN3C(=O)c4cccc5cccc(c45)C3=O)CC2)c(OC)c1 (configuration not stated) | 1360 nM | 3290 nM | 3290 nM | – |
| O=C1c2cccc3cc(O)cc(c23)C(=O)N1CC1CCN(CC(O)COc2cccc3[nH]c4ccccc4c23)CC1 (configuration not stated) | 250 nM | 590 nM | 37 nM | Intrinsic activity [4]: 40%; EC50 [6]: 234 nM; EC50 [8]: 80 nM; IC50 [9]: 120 nM |
| O=C1c2cccc3cccc(c23)C(=O)N1CC1CCN(CC(O)COc2cccc3[nH]c4ccccc4c23)CC1 (configuration not stated) | 7 nM | 225 nM | 3 nM | – |
| COc1cc2c3c(cccc3c1)C(=O)N(CC1CCN(CC(O)COc3ccccc3C(C)C)CC1)C2=O (configuration not stated) | 209 nM | 698 nM | 38 nM | – |
| C=CCc1ccccc1OCC(O)CN1CCN(CCN2C(=O)c3cccc4cccc(c34)C2=O)CC1 (configuration not stated) | 293 nM | 3100 nM | 150 nM | – |
| OC(COc1cccc2[nH]c3ccccc3c12)CN1CCC(Cc2ccccc2)CC1 (configuration not stated) | 14 nM | 230 nM | 0.5 nM | – |
| CC(C)c1ccccc1OCC(O)CN1CCC(CN2C(=O)c3cccc4cccc(c34)C2=O)CC1 (configuration not stated) | 250 nM | 1030 nM | 230 nM | – |
| CC(C)c1ccccc1OCC(O)CN1CCOCC1 (configuration not stated) | 12 nM | 1770 nM | 1.2 nM | – |
| C=CCc1ccccc1OCC(O)CN1CCC(CN2C(=O)c3cccc4cc(O)cc(c34)C2=O)CC1 (configuration not stated) | 170 nM | 2200 nM | 135 nM | – |
| O=C1c2cccc3cccc(c23)C(=O)N1C1CCN(CC(O)COc2cccc3[nH]c4ccccc4c23)CC1 (configuration not stated) | 76 nM | 98 nM | 57 nM | – |
| C=CCc1ccccc1OCC(O)CN1CCOCC1 (configuration not stated) | 114 nM | 4960 nM | 7 nM | – |
| C=CCc1ccccc1OCC(O)CN1CCC(CN2C(=O)c3cccc4cccc(c34)C2=O)CC1 (configuration not stated) | 80 nM | 409 nM | – | EC50 [6]: 2400 nM |
